Data as given in US20110112148A1, “INDOLINE COMPOUNDS” (Ferrer Internacional S.A., priority 2007, published 2011).

Biological target: T1, recombinant human MT1 receptor (Homo sapiens, UniProt P48039)
T1 construct: expressed in transfected cells; host or cells: unnamed cell line co-expressing mitochondrial apoaequorin and the Galpha16 subunit
Experiment: Agonist activity on MT1 receptors (aequorin luminescence, Gα16 co-expressing cell line)
Assay type: cell-based
Conditions: percentage activity with respect to the reference agonist at its EC100; for MT1 agonism, 1 nm: compound at 1 nm; for MT1 agonism, 100 nm: compound at 100 nm
Text: Determination of the Agonist Activity on MT1 Receptors
In order to screen compounds for the MT1 receptor a cell line is used that is characterised by stable overexpression of the recombinant human MT1 receptor in a cell line that in turn co-expresses mitochondrial apoaequorin and the Gα16 subunit.
The Ga16 subunit belongs to the G protein family, formed by GPCR, wherein the transduction of intracellular signals occurs via phospholipase (PLC). PLC activation produces an increase in inositol-triphosphate levels that leads to an increase in intracellular calcium. Ga16 overexpression thus allows an increase in intracellular calcium levels that is independent and compatible with the study receptor's own signal transduction pathway.
Following its binding to calcium, the aequorin oxidises coelenterazine to coelenteramide, a reaction that releases CO2 and light.
The trial protocol for the screening of possible agonists consists in collecting the cells and keeping them in suspension overnight in the presence of coelenterazine in order to reconstitute aequorin. On the following day the cells are injected on a plate where the compounds to be screened are diluted, and the luminescence released is read immediately. When wishing to study the possible antagonism of the same compounds, the reference agonist compound is added in the same well after 15-30 min from the first injection and the luminescence released is assessed.
Agonist activity is calculated as percentage activity with respect to the reference agonist at the concentration corresponding to its EC100. Antagonist activity is expressed as percentage inhibition over the reference agonist activity at the concentration corresponding to its EC80.

T1 sequence (P48039 whole entry): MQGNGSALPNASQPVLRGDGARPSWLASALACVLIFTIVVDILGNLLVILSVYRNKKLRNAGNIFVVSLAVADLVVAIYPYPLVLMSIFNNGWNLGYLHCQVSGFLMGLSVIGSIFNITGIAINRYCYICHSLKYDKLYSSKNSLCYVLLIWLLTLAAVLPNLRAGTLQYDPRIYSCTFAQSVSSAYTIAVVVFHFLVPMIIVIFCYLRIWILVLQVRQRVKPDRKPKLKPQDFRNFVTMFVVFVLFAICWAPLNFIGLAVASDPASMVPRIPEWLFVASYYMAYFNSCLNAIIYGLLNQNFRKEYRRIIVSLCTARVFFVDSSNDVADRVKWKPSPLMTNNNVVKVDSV

Compound: COc1ccc2c(c1)N(CCNC(C)=O)CC2 [Example 1, N-[2-(6-methoxy-2,3-dihydro-indol-1-yl)-ethyl]-acetamide]
- MT1 agonism, 1 nm: 13.1%
- MT1 agonism, 100 nm: 92%

Compound: COc1ccc2c(c1)N(CCNC(=O)C(F)(F)F)CC2 [Example 4, 2,2,2-trifluoro-N-[2-(6-methoxy-2,3-dihydro-indol-1-yl)-ethyl]-acetamide]
- MT1 agonism, 1 nm: 14.6%
- MT1 agonism, 100 nm: 94%

Compound: COc1ccc2c(c1)N(C(C)CNC(C)=O)CC2 (centres unmarked) [Example 5, N-[2-(6-methoxy-2,3-dihydro-indol-1-yl)-propyl]-acetamide]
- MT1 agonism, 1 nm: 11.5%
- MT1 agonism, 100 nm: 89.8%

Compound: CC(=O)NCCN1CCc2ccc3c(c21)CCO3 [N-[2-(2,3,7,8-tetrahydro-1H-furo[2,3-g]indol-1-yl)-ethyl]-acetamide, reference compound]
- MT1 agonism, 1 nm: 13.9%
- MT1 agonism, 100 nm: 76.6%
